Reference: patent publication US20220079895A1, “COMPOSITION FOR PREVENTING OR TREATING LIVER DISEASES” (AceBiomed, Inc., priority 2020, published 2022)

What was measured:
[1] = system: α-SMA (α-smooth muscle actin); experiment: expression of fibrosis-related gene α-SMA in liver tissues, NASH-induced model; assay type: in vivo, mouse; conditions: high fat diet 30 weeks
Description: (§1) Total RNA was extracted using an RNeasy mini kit (Qiagen), and then synthesized into cDNA using a high-capacity cDNA reverse transcription kit (Thermo Fisher). The same amount of cDNA was amplified using a SYBR™ green PCR master mix and a 10 pM primer set for each gene. The amplification process was subjected to an initial denaturation process at 95° C. for 5 minutes, and repetitively replication at 95° C. for 10 seconds, 58.5° C. for 10 seconds, and 72° C. for 10 seconds for a total of 40 times.

[2] = system: NASH-induced model mouse; experiment: superoxide (DHE) in liver tissues, NASH-induced model; assay type: in vivo; conditions: high fat diet 30 weeks
Description: In order to measure production of superoxide in liver tissues of mice, dihydroethidium (DHE) was used as a superoxide fluorescent indicator. In summary, deparaffinized liver tissue slides were reacted at 37° C. for 30 minutes with 10 μM DHE in a light-shielded humidity chamber. After the reaction, fluorescence indicating DHE was measured through a filter in a wavelength band of 580 nm in an Olympus FV1000 fluorescence microscope.

[3] = system: NASH-induced model mouse; experiment: blood biochemical test: serum ALT, NASH-induced model; assay type: in vivo; conditions: for ALT: serum, HFD + Colchicine alone
Description: The activity of alanine aminotransferase (ALT) of mice was measured using an ALT activity assay kit (Sigma-Aldrich).

[4] = system: collagen I; experiment: expression of collagen I increased by TGF-β1 in hepatocytes AML12; assay type: cell-based, mouse; conditions: AML12 cells; for additive interaction with colchicine in inhibiting the expression of collagen I: 5 nM colchicine + 30 μg/ml DPP-4 inhibitor, TGF-β1 (5 ng/ml)
Description: (§2) Mouse hepatocytes, AML12 cells, were incubated at 37° C., 95% air and 5% CO2 in a DMEM/F12 medium containing 5 μg/ml insulin, 5 μg/ml transferrin, 5 ng/ml selenium, 40 ng/ml dexamethasone, 10% fetal bovine serum (FBS) and 1% penicillin/streptomycin. AML12 cells pre-treated with 5 nM of colchicine and 30 μg/ml of a dipeptidyl peptidase-4 (DPP-4) inhibitor were treated with TGF-β1 (5 ng/ml) or 0.2 mM of palmitate after 8 hours, and further incubated for additional 16 hours.
as §1

[5] = system: TGF-β1; experiment: expression of fibrosis-related gene TGF-β1 in liver tissues, NASH-induced model; assay type: in vivo, mouse; conditions: high fat diet 30 weeks
Description: as §1

[6] = system: NASH-induced model mouse; experiment: blood biochemical test: serum triglyceride, NASH-induced model; assay type: in vivo; conditions: for Triglyceride: serum, HFD + Colchicine alone
Description: Triglyceride levels in mice were measured using an EZ-Triglyceride quantification assay kit (Dogen Bio). 1 ml of 5% NP-40 was added to a mouse serum sample, homogenized on ice, and then sufficiently cooled at room temperature. The sample in which all triglycerides were dissolved by heating once more was centrifuged at 13,000 rpm for 2 minutes, and then an insoluble material was removed, and the sample was diluted 10-fold with distilled water before assay. 2 μl of lipase was added to the sample dispensed in a 96 well plate by 90 μl and reacted for 20 minutes at room temperature, and then the reaction mixture was added to each sample by 50 μl, and further reacted at room temperature for 30 minutes in a light-shielded state. Thereafter, absorbance was measured at 570 nm using a microplate reader.

[7] = system: IL-1β; experiment: expression of inflammation-related gene IL-1β in liver tissues, NASH-induced model; assay type: in vivo, mouse; conditions: high fat diet 30 weeks
Description: as §1

[8] = system: SREBP1; experiment: expression of SREBP1 induced by palmitate in hepatocytes AML12; assay type: cell-based, mouse; conditions: AML12 cells; for additive interaction with colchicine in inhibiting the expression of SREBP1: 5 nM colchicine + 30 μg/ml DPP-4 inhibitor, 0.2 mM palmitate
Description: as §2, §1

[9] = system: IL-6; experiment: expression of inflammation-related gene IL-6 in liver tissues, NASH-induced model; assay type: in vivo, mouse; conditions: high fat diet 30 weeks
Description: as §1

[10] = system: IL-1β; experiment: expression of IL-1β induced by palmitate in hepatocytes AML12; assay type: cell-based, mouse; conditions: AML12 cells
Description: as §2, §1

[11] = system: collagen I; experiment: expression of fibrosis-related gene collagen I in liver tissues, NASH-induced model; assay type: in vivo, mouse; conditions: high fat diet 30 weeks
Description: as §1

[12] = system: SREBP1; experiment: expression of fat accumulation-related gene SREBP1 in liver tissues, NASH-induced model; assay type: in vivo, mouse; conditions: high fat diet 30 weeks
Description: as §1

[13] = system: ApoA1 (Apolipoprotein A1); experiment: expression of fat accumulation-related gene ApoA1 in liver tissues, NASH-induced model; assay type: in vivo, mouse; conditions: high fat diet 30 weeks
Description: as §1

[14] = system: NASH-induced model mouse; experiment: blood biochemical test: serum bilirubin, NASH-induced model; conditions: for Bilirubin: serum, HFD + Colchicine alone
[15] = system: NASH-induced model mouse; experiment: hydroxyproline in liver tissues, NASH-induced model; assay type: in vivo; conditions: high fat diet 30 weeks
Description: 100 mg of liver tissue was homogenized with physiological saline, and then a liver tissue supernatant was separated. The separated supernatant was hydrolyzed at 120° C. for 3 hours by adding the same amount of 12 N HCl. The cooled sample was vortexed and then centrifuged at 10,000 g for 3 minutes, and absorbance was measured at 550 nm using a final microplate reader by using a hydroxyproline assay kit.

[16] = system: TNF-α; experiment: expression of inflammation-related gene TNF-α in liver tissues, NASH-induced model; assay type: in vivo, mouse; conditions: high fat diet 30 weeks
Description: as §1

[17] = system: nonalcoholic steatohepatitis (NASH)-induced model mouse; experiment: H&E staining of liver tissues, fat accumulation, NASH-induced model; assay type: in vivo; conditions: high fat diet 30 weeks
Description: For H&E staining, deparaffinized tissues were reacted with a 50% hematoxylin solution at room temperature for 20 minutes, reacted with 1% HCl for 1 second, and then immediately transferred to a 0.5% eosin solution and stained for 20 minutes. Thereafter, the tissue was washed with distilled water, reacted with graded alcohol and finally dehydrated with xylene. The dehydrated tissue was fixed on a coverslip using a permount.

[18] = system: NASH-induced model mouse; experiment: blood biochemical test: serum AST, NASH-induced model; assay type: in vivo; conditions: for AST: serum, HFD + Colchicine alone
Description: The activity of aspartate aminotransferase (AST) of mice was measured using an AST activity assay kit (Abcam).

[19] = system: NASH-induced model mouse; experiment: blood biochemical test: serum total cholesterol, NASH-induced model; assay type: in vivo; conditions: for Total cholesterol: serum, HFD + Colchicine alone
Description: A total cholesterol amount of mice was measured using a Total cholesterol assay kit (Cell Biolabs). […] Thereafter, 50 μl of a cholesterol reaction reagent was added, and the reaction was performed at 37° C. for 45 minutes by shielding light. For the sample after the reaction, absorbance was measured at 540 to 570 nm using a microplate reader.

[20] = system: Dgat (Diglyceride acyltransferase); experiment: expression of fat accumulation-related gene Dgat in liver tissues, NASH-induced model; assay type: in vivo, mouse; conditions: high fat diet 30 weeks
Description: as §1

[21] = 5 nM colchicine alone, 0.2 mM palmitate after 8 hours, additional 16 hours
[22] = colchicine 40 μg/kg alone, orally once a day
[23] = co-administration with colchicine, for each sitagliptin concentration
[24] = high-fat diet 30 weeks, sitagliptin co-administered with colchicine by concentration
[25] = co-administration with colchicine 40 μg/kg, for each sitagliptin concentration

COc1cc2c(c(OC)c1OC)-c1ccc(OC)c(=O)cc1[C@@H](NC(C)=O)CC2 [Colchicine, colchicine]
expression of α-SMA in liver tissues ([1]; colchicine 40 μg/kg alone): reduced
production of superoxide in liver tissues ([2]; colchicine 40 μg/kg alone): reduced
ALT [3]: 154.7 ± 4.24 U/L
ALT ([3]; listed as colchicine): decreased
expression of collagen I increased by TGF-β1 ([4]; 5 nM colchicine alone, TGF-β1 (5 ng/ml) after 8 hours, additional 16 hours): reduced
expression of TGF-β1 in liver tissues ([5]; colchicine 40 μg/kg alone): reduced
Triglyceride [6]: 201.9 ± 0.27 mg/dL
Triglyceride ([6]; listed as colchicine): decreased
expression of IL-1β in liver tissues ([7]; colchicine 40 μg/kg alone): reduced
expression of SREBP1 induced by palmitate [8, 21]: reduced
expression of IL-6 in liver tissues ([9]; colchicine 40 μg/kg alone): reduced
expression of IL-1β induced by palmitate [10, 21]: reduced
expression of collagen I in liver tissues ([11]; colchicine 40 μg/kg alone): reduced
expression of SREBP1 in liver tissues ([12]; colchicine 40 μg/kg alone): reduced
expression of ApoA1 in liver tissues ([13]; colchicine 40 μg/kg alone): reduced
Bilirubin [14]: 0.57 ± 0.05 mg/dL
Bilirubin ([14]; listed as colchicine): decreased
accumulation of hydroxyproline in liver tissues [15, 22]: reduced
expression of TNF-α in liver tissues ([16]; colchicine 40 μg/kg alone): reduced
fat accumulation in liver tissues (H&E) [17, 22]: slightly reduced
AST [18]: 200.7 ± 2.74 U/L
AST ([18]; listed as colchicine): decreased
Total cholesterol [19]: 264.8 ± 0.87 mg/dL
Total cholesterol ([19]; listed as colchicine): decreased
expression of Dgat in liver tissues ([20]; colchicine 40 μg/kg alone): reduced

N#C[C@@H]1CCCN1C(=O)CNC12CC3CC(CC(O)(C3)C1)C2 [vildagliptin]
additive interaction with colchicine in inhibiting the expression of collagen I [4]: slight additive interaction

Cc1cc(N2CCN([C@@H]3CN[C@H](C(=O)N4CCSC4)C3)CC2)n(-c2ccccc2)n1 [teneligliptin]
additive interaction with colchicine in inhibiting the expression of collagen I [4]: slight additive interaction
additive interaction with colchicine in inhibiting the expression of SREBP1 [8]: excluding

CC(C)(C)OC[C@@H]1C(=O)NCCN1C(=O)C[C@H](N)Cc1cc(F)c(F)cc1F [evogliptin]
additive interaction with colchicine in inhibiting the expression of collagen I [4]: slight additive interaction

N[C@@H](CC(=O)N1CCn2c(nnc2C(F)(F)F)C1)Cc1cc(F)c(F)cc1F [sitagliptin]
effect of reducing the expression of α-SMA, interaction with colchicine [1, 23]: additive interaction
effect of reducing the production of superoxide, interaction with colchicine [2, 23]: additive interaction
level of ALT in serum, additive interaction compared with colchicine alone [3, 24]: decreases further
additive interaction with colchicine in inhibiting the expression of collagen I [4]: most excellent additive interaction
effect of reducing the expression of TGF-β1, interaction with colchicine [5, 23]: additive interaction
level of triglyceride in serum, additive interaction compared with colchicine alone [6, 24]: decreases further
effect of reducing the expression of IL-1β, interaction with colchicine [7, 23]: additive interaction
additive interaction with colchicine in inhibiting the expression of SREBP1 [8]: most excellent additive interaction
effect of reducing the expression of IL-6, interaction with colchicine [9, 23]: additive interaction
additive interaction with colchicine in inhibiting the expression of IL-1β ([10]; 5 nM colchicine + 30 μg/ml DPP-4 inhibitor, 0.2 mM palmitate): most excellent additive interaction
effect of reducing the expression of collagen I, interaction with colchicine [11, 23]: additive interaction
effect of reducing the expression of SREBP1, interaction with colchicine [12, 23]: additive interaction
effect of reducing the expression of ApoA1, interaction with colchicine [13, 23]: additive interaction
level of bilirubin in serum, additive interaction compared with colchicine alone [14, 24]: decreases further
hydroxyproline inhibitory effect, interaction with colchicine [15, 25]: additive interaction
effect of reducing the expression of TNF-α, interaction with colchicine [16, 23]: additive interaction
steatosis reduction effect, interaction with colchicine [17, 25]: additive interaction
level of AST in serum, additive interaction compared with colchicine alone [18, 24]: decreases further
level of cholesterol in serum, additive interaction compared with colchicine alone [19, 24]: decreases further
effect of reducing the expression of Dgat, interaction with colchicine [20, 23]: additive interaction
